Experiments:
[1] = molecular target: T1, Human RAD51 protein binding to ssDNA (Homo sapiens, UniProt Q06609); test: RAD51-DNA binding assay; settings: gel shift, 0.5 μM RAD51
T1 sequence (Q06609 1-339): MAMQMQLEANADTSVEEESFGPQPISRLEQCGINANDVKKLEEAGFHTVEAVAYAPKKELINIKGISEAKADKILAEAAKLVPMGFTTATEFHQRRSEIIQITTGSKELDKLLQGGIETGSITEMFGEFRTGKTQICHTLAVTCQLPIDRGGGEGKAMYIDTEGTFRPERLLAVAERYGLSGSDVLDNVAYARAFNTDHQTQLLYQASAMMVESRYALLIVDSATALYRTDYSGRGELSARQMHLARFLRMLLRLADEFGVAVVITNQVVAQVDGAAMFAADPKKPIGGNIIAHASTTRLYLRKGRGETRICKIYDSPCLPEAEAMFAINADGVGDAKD

[2] = tested on: relaxed covalently-closed circular dsDNA plasmid (pRS306); test: dsDNA intercalation assay; format: binding; settings: 10 μM; DMSO vehicle defined as 0, saturation of the endpoint = 1

| Compound | effect on RAD51 binding to ssDNA / RAD51-ssDNA nucleoprotein filaments (in words) [1] | intercalation score [2] |
| --- | --- | --- |
| O=C1C(Cl)=C(N2CCOCC2)C(=O)N1c1ccc(Cl)c(Cl)c1 [RI-1] | inhibited |  |
| CCN(CC)CCCC(C)Nc1ccnc2cc(Cl)ccc12 (centres unmarked) [chloroquine] |  | 1 |

Source: PMC6525040 (ChemMedChem, 2019)
